# Results from patent US8029980B2, “Identification and use of agents that modulate oncogenic transcription agent activity” (The Board of Trustees of the University of Illinois, priority 2006, dated 2011).
# Experiments:
# FoxM1 = molecular target: T1, FoxM1 (Homo sapiens, UniProt Q08050); experiment: FoxM1 immunoprecipitation and MPM2 immunoblot for phospho-FoxM1 in C3-Luc cells; format: cell-based; details: 100 μM, 8 hrs
# T1 construct: endogenous in cells; host or cells: C3-Luc (U2OS)
# T1 sequence (Q08050 1-763): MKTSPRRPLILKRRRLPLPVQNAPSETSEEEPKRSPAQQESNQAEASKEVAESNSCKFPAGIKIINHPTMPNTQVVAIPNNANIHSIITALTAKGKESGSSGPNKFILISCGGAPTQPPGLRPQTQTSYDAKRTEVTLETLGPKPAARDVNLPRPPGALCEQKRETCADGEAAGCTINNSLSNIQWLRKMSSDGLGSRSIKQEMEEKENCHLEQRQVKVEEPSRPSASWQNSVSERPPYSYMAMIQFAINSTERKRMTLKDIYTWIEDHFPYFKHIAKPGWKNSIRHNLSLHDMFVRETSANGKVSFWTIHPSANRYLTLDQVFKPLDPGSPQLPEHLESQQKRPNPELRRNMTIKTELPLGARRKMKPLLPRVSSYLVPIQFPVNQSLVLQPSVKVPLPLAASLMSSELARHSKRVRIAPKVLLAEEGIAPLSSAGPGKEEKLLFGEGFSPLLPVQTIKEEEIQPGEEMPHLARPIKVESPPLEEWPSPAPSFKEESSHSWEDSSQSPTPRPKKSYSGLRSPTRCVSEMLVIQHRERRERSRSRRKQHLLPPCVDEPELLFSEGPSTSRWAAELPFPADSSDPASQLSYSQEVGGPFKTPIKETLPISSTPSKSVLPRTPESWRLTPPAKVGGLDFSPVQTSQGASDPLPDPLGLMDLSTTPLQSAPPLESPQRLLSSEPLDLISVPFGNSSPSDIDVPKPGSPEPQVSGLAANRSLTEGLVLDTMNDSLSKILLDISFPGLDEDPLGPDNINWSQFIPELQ
# Experimental: (§1) Immunoblotting was performed as described (18-20) with antibodies specific for p21 (556431; BD Pharmingen), survivin (sc-10811; Santa Cruz), cleaved caspase-3 (9664; Cell Signaling), and β-actin (A5441; Sigma) antibodies. Immunoblot for FoxM1 was done using the previously generated rabbit antisera (2), and phospho-FoxM1 was detected using the MPM2 monoclonal antibody (Upstate Biotechnology) which recognizes the phosphorylated protein sequence phosphoserine/phosphothreonine-proline.
# For the immunoprecipitation experiment, FoxM1 antisera (2) was used along with protein A-sepharose to pull down FoxM1 protein, which was resolved on an SDS-PAGE gel and transferred to PVDF membrane. The total and phospho-FoxM1 levels were determined by using the antibodies described above.
# Based on this observation, we hypothesized that Siomycin A may inhibit FoxM1 transcriptional activity by blocking this phosphorylation event. In order to test this hypothesis, we treated C3-Luc cells with DMSO (control) or 100 μM of Siomycin A for 8 hrs and immunoprecipitated FoxM1 from the lysates. We then analyzed these samples for phospho-FoxM1 levels by immunoblotting with MPM2, a monoclonal antibody that recognizes phosphorylated Cdk1 and Cdk2 sites.
# [1] = tested on: human breast cancer MDA-MB-231 cell line; details: earlier report (ref. 26); cited from earlier work
# [2] = tested on: Breast cancer cell lines BT-474, MDA-MB-231, T-47D and ZR-75-1; experiment: FoxM1 and cleaved caspase-3 immunoblot in breast cancer cell lines; format: cell-based, human; details: 5 μM, 48 hrs
# Experimental: FIG. 7. […] Breast cancer cell lines BT-474, MDA-MB-231, T-47D and ZR-75-1 were treated with 5 μM Siomycin and thiostrepton, respectively, for 48 hrs and the cell lysates were analyzed for the levels of FoxM1 and cleaved caspase-3 by immunoblotting.
# as §1
# [3] = tested on: Wild type MRC-5 human fetal lung fibroblasts; experiment: Apoptosis assay (DAPI staining, caspase-3 and survivin immunoblot) in normal fibroblasts; format: cell-based
# Experimental: FIG. 4. Anti-cancer properties of Siomycin A. (A) Representative photographs from soft agar experiment as described in Example 1 are shown. (B) Number of colonies in the soft agar were quantitated and plotted in the form of bar graphs. (C) Wild type and SV40-transformed MRC-5 human fetal lung fibroblasts were treated with indicated concentrations of Siomycin A for 48 hrs. Photographs from phase contrast microscopy (top panel) and fluorescent microscopy after DAPI staining (bottom panel) are shown. (D) Apoptotic nuclei from normal and SV40-transformed MRC-5 fibroblasts treated with indicated concentrations of Siomycin A for 24 hrs were scored after DAPI staining and percentage cell death (mean±sd; n=3) is shown. (E) Wild type and SV40-transformed MRC-5 fibroblasts were treated with Siomycin A as indicated for 48 hrs and the cell lysates were used for immunoblotting and probed for levels of survivin and cleaved caspase-3.
# as §1
# Apoptosis was detected by DAPI (4′,6-diamidino-2-phenylindole) staining. All treatments were done in triplicates in 6-well plates and cells were stained with DAPI and visualized by fluorescent microscopy. Four random fields for each sample were photographed and at least 500 cells per field were counted to estimate apoptosis. The data is represented as mean±sd.
# [4] = normal cells, 48 hrs, immunoblot
smiles,measurement,setting,value
C=C(NC(=O)C(=C)NC(=O)c1csc(C2=N[C@@H]3c4csc(n4)[C@H]4NC(=O)c5csc(n5)[C@H]([C@](C)(O)[C@@H](C)O)NC(=O)[C@H]5CSC(=N5)/C(=C/C)NC(=O)[C@H]([C@@H](C)O)NC(=O)c5csc(n5)[C@]3(CC2)NC(=O)[C@H](C)NC(=O)C(=C)NC(=O)C(=C)NC(=O)[C@H](C(C)C)N[C@@H]2C=Cc3c([C@H](C)O)cc(nc3[C@H]2O)C(=O)O[C@@H]4C)n1)C(N)=O [Siomycin A],phospho-FoxM1 levels,FoxM1,decrease in phospho-FoxM1
same,total FoxM1 levels,FoxM1,only marginally reduced
same,pro-apoptotic activity in screen,[1],identified in a screen for pro-apoptotic compounds
same,FoxM1 expression,[2],inhibit FoxM1 expression
same,apoptosis (cleaved caspase-3),[2],induce apoptosis
same,cleavage of caspase-3,[3]; [4],but not normal cells showed cleavage of caspase-3
same,survivin levels,[3]; [4],effectively repress survivin levels
same,apoptosis / cell death,"[3]; untransformed normal cells, forty-eight hours after treatment",did not exhibit significant cell death
